Laboratory results taken from US20250213574A1, “THERAPEUTIC COMBINATIONS COMPRISING UBIQUITIN- SPECIFIC-PROCESSING PROTEASE 1 (USP1) INHIBITORS AND CHEMOTHERAPY AGENTS” (KSQ Therapeutics, Inc., priority 2022, published 2025).
Read-outs that look alike come from different tables or passages of the source.

Legend:
Format in all cases: cell-based
[1] = test system: COV362; assay: Colony formation (CFU) assay, COV362; settings: 336 h; COV362, ovary; CFU ~14 days; wells with DMSO or 300 nM Compound 1; read-out: Chemotherapy nM IC50s
Method: (§1) In vitro experiments were conducted using the colony formation unit (CFU) assay on various cell lines. The CFU assay involved first establishing what cell plating density enabled the development of clearly interspersed colonies on a six-well plate when left to grow for around 14 days. […] At or around day 14 when clearly interspersed colonies were visible in the DMSO-treated wells, the cells were fixed and stained using 0.1% crystal violet in 10% ethanol for 20 minutes at room temperature. The plates were imaged then the amount of crystal violet stain in each well was quantified by extracting the crystal violet into 10% acetic acid and the absorbance measured at 565 nm.
(§2) For certain cell lines, multiple IC50 values were taken, and those are separated by commas. Synergy scores are in parentheticals.

[2] = test system: ACCMESO1; assay: Colony formation (CFU) assay, ACCMESO1; settings: ACC-MESO-1, 336 h; ACCMESO1, pleura; CFU ~14 days; wells with DMSO or 300 nM Compound 1; read-out: Chemotherapy nM IC50s
Method: as §1, §2

[3] = test system: UWB1289; assay: Colony formation (CFU) assay, UWB1289; settings: 336 h; UWB1289, ovary; CFU ~14 days; wells with DMSO or 300 nM Compound 1; read-out: Chemotherapy nM IC50s
Method: as §1, §2

[4] = test system: KALS1; assay: Colony formation (CFU) assay, KALS1; settings: Homo sapiens, KALS-1, 336 h; KALS1, nervous system; CFU ~14 days; wells with DMSO or 300 nM Compound 1; read-out: Chemotherapy nM IC50s
Method: as §1, §2

[5] = test system: NCIH2452; assay: Colony formation (CFU) assay, NCIH2452; settings: Homo sapiens, NCI-H2452, 336 h; NCIH2452, pleura; CFU ~14 days; wells with DMSO or 300 nM Compound 1; read-out: Chemotherapy nM IC50s
Method: as §1, §2

[6] = test system: MSTO211H; assay: Colony formation (CFU) assay, MSTO211H; settings: pleura, CFU ~14 days, wells with DMSO or 300 nM Compound 1, read-out: Chemotherapy nM IC50s
Method: as §1, §2

[7] = test system: MERO14; assay: Colony formation (CFU) assay, MERO14; settings: CFU ~14 days, wells with DMSO or 300 nM Compound 1, read-out: Chemotherapy nM IC50s
Method: as §1, §2

[8] = test system: HCC1937; assay: Colony formation (CFU) assay, HCC1937; settings: HCC1937, breast, CFU ~14 days, wells with DMSO or 300 nM Compound 1, read-out: Chemotherapy nM IC50s
Method: as §1, §2

[9] = test system: OVSAHO; assay: Colony formation (CFU) assay, OVSAHO; settings: Homo sapiens, 336 h, ovary, CFU ~14 days, wells with DMSO or 300 nM Compound 1, read-out: Chemotherapy nM IC50s
Method: as §1, §2

[10] = test system: NCIH1915; assay: Colony formation (CFU) assay, NCIH1915; settings: NCIH1915, lung, CFU ~14 days, wells with DMSO or 300 nM Compound 1, read-out: Chemotherapy nM IC50s
Method: as §1, §2

[11] = test system: NCIH1650; assay: Colony formation (CFU) assay, NCIH1650; settings: NCIH1650, lung, CFU ~14 days, wells with DMSO or 300 nM Compound 1, read-out: Chemotherapy nM IC50s
Method: as §1, §2

[12] = test system: U251MG; assay: Colony formation (CFU) assay, U251MG; settings: nervous system, CFU ~14 days, wells with DMSO or 300 nM Compound 1, read-out: Chemotherapy nM IC50s
Method: as §1, §2

[13] = test system: BECKER; assay: Colony formation (CFU) assay, BECKER; settings: CFU ~14 days, wells with DMSO or 300 nM Compound 1, read-out: Chemotherapy nM IC50s
Method: as §1, §2

[14] = test system: HCC1806; assay: Colony formation (CFU) assay, HCC1806; settings: HCC1806, breast, CFU ~14 days, wells with DMSO or 300 nM Compound 1, read-out: Chemotherapy nM IC50s (converted)
Method: as §1, §2

[15] = test system: SUM149PT; assay: Colony formation (CFU) assay, SUM149PT; settings: breast
Method: as §1, §2

[16] = test system: 647V; assay: Colony formation (CFU) assay, 647V; settings: Homo sapiens, 336 h, bladder, CFU ~14 days, wells with DMSO or 300 nM Compound 1, read-out: Chemotherapy nM IC50s
Method: as §1, §2

[17] = test system: MDAMB231; assay: Colony formation (CFU) assay, MDAMB231; settings: MDAMB231, breast, CFU ~14 days, wells with DMSO or 300 nM Compound 1, read-out: Chemotherapy nM IC50s
Method: as §1, §2

[18] = test system: CAPAN2; assay: Colony formation (CFU) assay, CAPAN2; settings: CAPAN2, pancreas, CFU ~14 days, wells with DMSO or 300 nM Compound 1, read-out: Chemotherapy nM IC50s
Method: as §1, §2

[19] = test system: HPAC; assay: Colony formation (CFU) assay, HPAC; settings: Homo sapiens, 336 h, pancreas, CFU ~14 days, wells with DMSO or 300 nM Compound 1, read-out: Chemotherapy nM IC50s
Method: as §1, §2

[20] = test system: A549; assay: Colony formation (CFU) assay, A549; settings: Homo sapiens, 336 h; A549, lung; CFU ~14 days; wells with DMSO or 300 nM Compound 1; read-out: Chemotherapy nM IC50s
Method: as §1, §2

**Q.** `COc1cccc2c1C(=O)c1c(O)c3c(c(O)c1C2=O)C[C@@](O)(C(=O)CO)C[C@@H]3O[C@H]1C[C@H](N)[C@H](O)[C@H](C)O1` [Dox., doxorubicin] was tested. Which IC50 [1] did it give?
**A.** The IC50 was 108 nM.

**Q.** And the IC50 [2]?
**A.** Its IC50 is 19 nM.

**Q.** And the IC50 [3]?
**A.** Its IC50 is 76 nM.

**Q.** What about the IC50 [4] of the same molecule?
**A.** Its IC50 is 52 nM.

**Q.** What about the IC50 [5] of the same molecule?
**A.** Its IC50 is 21 nM.

**Q.** And the IC50 ([6]; Homo sapiens, MSTO-211H, 336 h)?
**A.** Its IC50 is 16 nM.

**Q.** And the IC50 [6]?
**A.** The IC50 was 8 nM.

**Q.** And the IC50 ([7]; 336 h)?
**A.** The IC50 was 17 nM.

**Q.** What about the IC50 [7] of the same molecule?
**A.** Its IC50 is 14 nM.

**Q.** And the IC50 [8]?
**A.** The IC50 was 4 nM.

**Q.** And the IC50 ([8]; Homo sapiens, HCC1937, 336 h)?
**A.** The IC50 was 8 nM.

**Q.** What about the IC50 [9] of the same molecule?
**A.** The IC50 was 147 nM.

**Q.** `COc1cc([C@@H]2c3cc4c(cc3[C@@H](O[C@@H]3O[C@@H]5CO[C@@H](C)O[C@H]5[C@H](O)[C@H]3O)[C@H]3COC(=O)[C@H]23)OCO4)cc(OC)c1O` [Etop., etoposide] was tested. Which IC50 [10] did it give?
**A.** The IC50 was 500 nM.

**Q.** What about the IC50 [11] of the same molecule?
**A.** Its IC50 is 270 nM.

**Q.** And the IC50 [12]?
**A.** Its IC50 is 583 nM.

**Q.** What about the IC50 [13] of the same molecule?
**A.** The IC50 was 837 nM.

**Q.** Which IC50 ([14]; Homo sapiens, 336 h) does the source give for `Nc1ccn([C@@H]2O[C@H](CO)[C@@H](O)C2(F)F)c(=O)n1` [Gem., gemcitabine] here?
**A.** The IC50 was under 1 nM.

**Q.** And the IC50 ([15]; Homo sapiens, 336 h, CFU ~14 days, wells with DMSO or 300 nM Compound 1, read-out: Chemotherapy nM IC50s)?
**A.** Its IC50 is 1 nM.

**Q.** What about the synergy score ([15]; chemotherapy agent in combination with 300 nM Compound 1) of the same molecule?
**A.** Its synergy score is “(−1)”.

**Q.** What about the IC50 [16] of the same molecule?
**A.** The IC50 was 2 nM.

**Q.** `CC(=O)O[C@H]1C(=O)[C@@]2(C)[C@H]([C@H](OC(=O)c3ccccc3)[C@]3(O)C[C@H](OC(=O)[C@H](O)[C@@H](NC(=O)c4ccccc4)c4ccccc4)C(C)=C1C3(C)C)[C@]1(OC(C)=O)CO[C@@H]1C[C@@H]2O` [Pacli., paclitaxel] was tested. Which IC50 [1] did it give?
**A.** Its IC50 is 13 nM.

**Q.** What about the IC50 ([10]; NCI-H1915, 336 h) of the same molecule?
**A.** The IC50 was under 1 nM.

**Q.** And the IC50 ([17]; Homo sapiens, MDA-MB-231, 336 h)?
**A.** Its IC50 is 1 nM.

**Q.** What about the IC50 [17] of the same molecule?
**A.** Its IC50 is under 1 nM.

**Q.** What about the IC50 [18] of the same molecule?
**A.** The IC50 was under 1 nM.

**Q.** What about the IC50 ([18]; Homo sapiens, Capan-2, 336 h) of the same molecule?
**A.** Its IC50 is 2 nM.

**Q.** What about the IC50 [3] of the same molecule?
**A.** The IC50 was 43 nM.

**Q.** What about the IC50 [14] of the same molecule?
**A.** The IC50 was under 1 nM.

**Q.** What about the IC50 ([14]; Homo sapiens, HCC1806, 336 h) of the same molecule?
**A.** The IC50 was 1 nM.

**Q.** What about the IC50 ([11]; Homo sapiens, NCI-H1650, 336 h) of the same molecule?
**A.** The IC50 was 1 nM.

**Q.** What about the IC50 [11] of the same molecule?
**A.** The IC50 was under 1 nM.

**Q.** And the IC50 [9]?
**A.** Its IC50 is 78 nM.

**Q.** And the IC50 [19]?
**A.** Its IC50 is 3 nM.

**Q.** What about the IC50 [20] of the same molecule?
**A.** Its IC50 is 2 nM.
